Test results from patent EP4653000A1, “INHIBITORS OF PSEUDOMONAS AERUGINOSA ELASTASE (LASB) FOR THE TREATMENT OF PSEUDOMONAS KERATITIS” (Helmholtz-Zentrum für Infektionsforschung GmbH, priority 2024, dated 2025).

Legend:
[1] = Concentration of HIPS-7178 in eye homogenate and serum in the keratitis model (HPLC-MS/MS); assay type: in vivo, C57BL/6N mice; details: topical 5 µL of 1 mg/mL every eight hours along 72h; Figure 2 (a)
Protocol: Animals. The animal experiments were approved by Saarland University's Animal Welfare Committee (Application number: 17/2021) and conducted in accordance with German and European recommendations and guidelines for the ethical use of animals. The laboratory animals were all C57BL/6N female eight to eleven months old mice. Unlimited access to water and show was secured. Temperature was closely maintained around 22 °C and relative air humidity around 50%. Light and darkness alternated at twelve-hour intervals. All laboratory animals were purchased from Charles River GmbH, Sulzfeld, Germany.
Infection procedure. Anesthesia and infection were performed as previously published. […]
Documentation and Treatment. […] Keratitis severity was visualized using a stereomicroscope (Leitz ELVAR, Wetzlar, Germany) at 16× magnification combined with a high-resolution microscope digital camera (Seben GmbH, Berlin, Germany) and evaluated using a previously described clinical scoring scheme (Lyu et al., 2020). […] The body weight of the mice was measured daily and used as welfare indicator. General condition and behavior were also recorded daily. […]

[2] = tested on: P. aeruginosa strain PA54; assay: LasB and desmosin levels in eye homogenate in the experimental bacterial keratitis model (LC-MS/MS); assay type: in vivo, C57BL/6N mice; details: for LasB levels in eye homogenate: compared with vehicle (highest levels), p < 0.05, Figure 2 (b)
[3] = tested on: P. aeruginosa strain PA54; assay: Antibiotic susceptibility / minimum inhibitory concentration (MIC) of strain PA54; assay type: cell-based, Pseudomonas aeruginosa; details: strain PA54, clinical isolate from eye wound swab
From the text: Pseudomonas aeruginosa. The P. aeruginosa strain PA54 was employed to induce an experimental bacterial keratitis in the aforementioned C57BL/6N mice. The strain PA54 was isolated from a human infection (wound swab from the eye) and collected at Saarland University Medical Center's Institute for Medical Microbiology and Hygienics (IMMH) in 2009.

Molecule: CC(=O)c1ccc(NC(=O)[C@@H](NC(=O)C(CC(C)C)P(=O)(O)O)C(C)C)cc1 (some centres unmarked) [HIPS-7178]
- HIPS-7178 concentrations in eye homogenate and serum [1]: similarly high
- LasB levels in eye homogenate [2]: reduced levels

Molecule: CO/N=C(\C(=O)N[C@@H]1C(=O)N2C(C(=O)[O-])=C(C[N+]3(C)CCCC3)CS[C@H]12)c1csc(N)n1 [cefepime]
- sensibility of PA54 (multidrug-resistant classification) [3]: lacking sensibility

Molecule: CC(C)(O/N=C(\C(=O)N[C@@H]1C(=O)N2C(C(=O)[O-])=C(C[n+]3ccccc3)CS[C@H]12)c1csc(N)n1)C(=O)O [ceftazidime]
- sensibility of PA54 (multidrug-resistant classification) [3]: lacking sensibility

Molecule: C[C@@H]1O[C@@H]1P(=O)(O)O [fosfomycin]
- sensibility of PA54 (multidrug-resistant classification) [3]: lacking sensibility

Molecule: C[C@@H](O)[C@H]1C(=O)N2C(C(=O)O)=C(S[C@@H]3CN[C@H](C(=O)N(C)C)C3)[C@H](C)[C@H]12 [meropenem]
- Desmosin levels in eye ([2]; compared with uninfected control, Figure 2 (c)): similarly high levels as uninfected group
- LasB levels in eye homogenate [2]: reduced levels

Molecule: gentamicin
- sensibility of PA54 (multidrug-resistant classification) [3]: lacking sensibility
